Measurements reported in US11793849B2, “Method of Chinese herbal medicine extract used for treating multiple diseases caused by drug resistant bacteria infection” (priority 2016, dated 2023).
Converted amounts (≈) assume the structure as drawn. Like-named read-outs stand apart in the source and are kept apart here.

What was measured:
MDRPA [1] = test: Checkerboard assay (combined-use MIC, FIC); format: cell-based, Pseudomonas aeruginosa; conditions: for FIC, all strains / MIC50 of the antibiotic after combined use / MIC90 of the antibiotic after combined use / reduction of the antibiotic's MIC50 vs single use / reduction of the antibiotic's MIC90 vs single use / share of strains with FIC ≤ 0.5: 20 MDRPAs; for combined-use MIC: EA (P. clypearia water extract) combined with LVX
In short: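 Checkerboard combinations of S20b and antibiotic run per NCCLS method against ESBL E. coli, MDR A. baumannii and MDR P. aeruginosa.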

MDRPA [2] = test: MIC determination, microdilution broth method;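 further: broth microdilution per NCCLS recommendations, testing Pithecellobium clypearia water or ethanol extracts against multidrug-resistant Pseudomonas aeruginosa, with MIC50 and MIC90 derived statistically from individual MICs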
Method: Determination methods of a Minimal Inhibitory Concentration (MIC) and a Minimum Bactericidal Concentration (MBC) of a test product: the MIC and the MBC of the Pithecellobium clypearia Benth water or ethanol extract to the MDRAB are determined by a microdilution broth method. And it is operated by referring to the microdilution broth method recommended by National Committee for Clinical Laboratory Standards (NCCLS).
By determining the MIC and the MBC of the drug and making statistics of the data to obtain MIC50, MIC90, MBC50 and MBC90, the effect of the MDRA resistance of the drug is evaluated.
Test method: the MDRPA (serial No.: P1-P20) strains are tested and are evaluated with reference to the method in the first embodiment.

[3] = antibiotic with 10% ethanol extract
[4] = antibiotic with 60% ethanol extract
[5] = antibiotic with 95% ethanol extract
[6] = antibiotic with EA (water extract)
[7] = 20 MDRPAs, EA = 60% ethanol extract
[8] = 20 MDRPAs, EA = 95% ethanol extract
[9] = MDRPAs P1-P20, single use, EA=P. clypearia 10% ethanol extract
[10] = MDRPAs P1-P20, single use, EA=P. clypearia water extract
[11] = single use, 20 MDRPAs, section of the 10% ethanol extract
[12] = single use, 20 MDRPAs, section of the 60% ethanol extract
[13] = single use, 20 MDRPAs, section of the 95% ethanol extract

## C[C@H]1COc2c(N3CCN(C)CC3)c(F)cc3c(=O)c(C(=O)O)cn1c23 [LVX, Levofloxacin]
MDRPA [1]; [3]
  FIC, all strains: ≤ 2
  MIC50 of the antibiotic after combined use: 1 µg/mL
  MIC90 of the antibiotic after combined use: 4 µg/mL
  reduction of the antibiotic's MIC50 vs single use: 75%
  reduction of the antibiotic's MIC90 vs single use: 87.5%
  share of strains with FIC ≤ 0.5: 15%
MDRPA [1]; [4]
  MIC50 of the antibiotic after combined use: 1 µg/mL
  MIC90 of the antibiotic after combined use: 8 µg/mL
  reduction of the antibiotic's MIC50 vs single use: 75%
  reduction of the antibiotic's MIC90 vs single use: 75%
  share of strains with FIC ≤ 0.5: 10%
MDRPA [1]; [5]
  FIC, all strains: ≤ 2
  MIC50 of the antibiotic after combined use: 1 µg/mL
  MIC90 of the antibiotic after combined use: 4 µg/mL
  reduction of the antibiotic's MIC50 vs single use: 75%
  reduction of the antibiotic's MIC90 vs single use: 87.5%
  share of strains with FIC ≤ 0.5: 10%
MDRPA [1]; [6]
  FIC, all strains: ≤ 2
  MIC50 of the antibiotic after combined use: 1 µg/mL
  MIC90 of the antibiotic after combined use: 8 µg/mL
  reduction of the antibiotic's MIC50 vs single use: 75%
  reduction of the antibiotic's MIC90 vs single use: 75%
  share of strains with FIC ≤ 0.5: 15%
MDRPA [1]; strain P1
  combined-use MIC: 4 µg/mL
MDRPA [1]; strain P2
  combined-use MIC: 0.03125 µg/mL
MDRPA [1]; strain P3
  combined-use MIC: 0.03125 µg/mL
MDRPA [1]; strain P4
  combined-use MIC: 4 µg/mL
MDRPA [1]; strain P5
  combined-use MIC: 0.03125 µg/mL
MDRPA [1]; strain P6
  combined-use MIC: 0.03125 µg/mL
MDRPA [1]; strain P7
  combined-use MIC: 0.03125 µg/mL
MDRPA [1]; strain P8
  combined-use MIC: 0.03125 µg/mL
MDRPA [1]; strain P9
  combined-use MIC: 2 µg/mL
MDRPA [1]; strain P10
  combined-use MIC: 32 µg/mL
MDRPA [1]; strain P11
  combined-use MIC: 1 µg/mL
MDRPA [1]; strain P12
  combined-use MIC: 0.5 µg/mL
MDRPA [1]; strain P13
  combined-use MIC: 1 µg/mL
MDRPA [1]; strain P14
  combined-use MIC: 1 µg/mL
MDRPA [1]; strain P15
  combined-use MIC: 1 µg/mL
MDRPA [1]; strain P16
  combined-use MIC: 2 µg/mL
MDRPA [1]; strain P17
  combined-use MIC: 4 µg/mL
MDRPA [1]; strain P18
  combined-use MIC: 8 µg/mL
MDRPA [1]; strain P19
  combined-use MIC: 4 µg/mL
MDRPA [1]; strain P20
  combined-use MIC: 1 µg/mL
MDRPA [2]; [7]
  MIC50: 4 µg/mL (≈ 11.1 µM)
  MIC90: 32 µg/mL (≈ 88.6 µM)
  MIC Range: 0.5 to 128 µg/mL
MDRPA [2]; [8]
  MIC50: 4 µg/mL (≈ 11.1 µM)
  MIC90: 32 µg/mL (≈ 88.6 µM)
  MIC Range: 0.5 to 128 µg/mL
MDRPA [2]; [9]
  MIC50: 4 µg/mL (≈ 11.1 µM)
  MIC90: 32 µg/mL (≈ 88.6 µM)
  MIC Range: 0.5 to 128 µg/mL
MDRPA [2]; [10]
  MIC50: 4 µg/mL (≈ 11.1 µM)
  MIC90: 32 µg/mL (≈ 88.6 µM)
  MIC Range: 0.5 to 128 µg/mL
MDRPA [2]; Pseudomonas aeruginosa
  MIC50: 4 µg/mL (≈ 11.1 µM)
  MIC90: 32 µg/mL (≈ 88.6 µM)
MDRPA [2]; Pseudomonas aeruginosa, read-out: MIC (single use), strain P1, EA=P. clypearia 10% ethanol extract
  MIC: 32 µg/mL (≈ 88.6 µM)
MDRPA [2]; Pseudomonas aeruginosa, read-out: MIC (single use), strain P1, EA=P. clypearia water extract
  MIC: 32 µg/mL (≈ 88.6 µM)
MDRPA [2]; Pseudomonas aeruginosa, read-out: MIC (single use), strain P2, EA=P. clypearia 10% ethanol extract
  MIC: 4 µg/mL (≈ 11.1 µM)
MDRPA [2]; Pseudomonas aeruginosa, read-out: MIC (single use), strain P2, EA=P. clypearia water extract
  MIC: 4 µg/mL (≈ 11.1 µM)
MDRPA [2]; Pseudomonas aeruginosa, read-out: MIC (single use), strain P3, EA=P. clypearia 10% ethanol extract
  MIC: 8 µg/mL (≈ 22.1 µM)
MDRPA [2]; Pseudomonas aeruginosa, read-out: MIC (single use), strain P3, EA=P. clypearia water extract
  MIC: 8 µg/mL (≈ 22.1 µM)
MDRPA [2]; Pseudomonas aeruginosa, read-out: MIC (single use), strain P4, EA=P. clypearia 10% ethanol extract
  MIC: 8 µg/mL (≈ 22.1 µM)
MDRPA [2]; Pseudomonas aeruginosa, read-out: MIC (single use), strain P4, EA=P. clypearia water extract
  MIC: 8 µg/mL (≈ 22.1 µM)
MDRPA [2]; Pseudomonas aeruginosa, read-out: MIC (single use), strain P5, EA=P. clypearia 10% ethanol extract
  MIC: 1 µg/mL (≈ 2.77 µM)
MDRPA [2]; Pseudomonas aeruginosa, read-out: MIC (single use), strain P5, EA=P. clypearia water extract
  MIC: 1 µg/mL (≈ 2.77 µM)
MDRPA [2]; Pseudomonas aeruginosa, read-out: MIC (single use), strain P6, EA=P. clypearia 10% ethanol extract
  MIC: 0.5 µg/mL (≈ 1.38 µM)
MDRPA [2]; Pseudomonas aeruginosa, read-out: MIC (single use), strain P6, EA=P. clypearia water extract
  MIC: 0.5 µg/mL (≈ 1.38 µM)
MDRPA [2]; Pseudomonas aeruginosa, read-out: MIC (single use), strain P7, EA=P. clypearia 10% ethanol extract
  MIC: 32 µg/mL (≈ 88.6 µM)
MDRPA [2]; Pseudomonas aeruginosa, read-out: MIC (single use), strain P7, EA=P. clypearia water extract
  MIC: 32 µg/mL (≈ 88.6 µM)
MDRPA [2]; Pseudomonas aeruginosa, read-out: MIC (single use), strain P8, EA=P. clypearia 10% ethanol extract
  MIC: 1 µg/mL (≈ 2.77 µM)
MDRPA [2]; Pseudomonas aeruginosa, read-out: MIC (single use), strain P8, EA=P. clypearia water extract
  MIC: 1 µg/mL (≈ 2.77 µM)
MDRPA [2]; Pseudomonas aeruginosa, read-out: MIC (single use), strain P9, EA=P. clypearia 10% ethanol extract
  MIC: 4 µg/mL (≈ 11.1 µM)
MDRPA [2]; Pseudomonas aeruginosa, read-out: MIC (single use), strain P9, EA=P. clypearia water extract
  MIC: 4 µg/mL (≈ 11.1 µM)
MDRPA [2]; Pseudomonas aeruginosa, read-out: MIC (single use), strain P10, EA=P. clypearia 10% ethanol extract
  MIC: 128 µg/mL (≈ 354 µM)
MDRPA [2]; Pseudomonas aeruginosa, read-out: MIC (single use), strain P10, EA=P. clypearia water extract
  MIC: 128 µg/mL (≈ 354 µM)
MDRPA [2]; Pseudomonas aeruginosa, read-out: MIC (single use), strain P11, EA=P. clypearia 10% ethanol extract
  MIC: 2 µg/mL (≈ 5.53 µM)
MDRPA [2]; Pseudomonas aeruginosa, read-out: MIC (single use), strain P11, EA=P. clypearia water extract
  MIC: 2 µg/mL (≈ 5.53 µM)
MDRPA [2]; Pseudomonas aeruginosa, read-out: MIC (single use), strain P12, EA=P. clypearia 10% ethanol extract
  MIC: 1 µg/mL (≈ 2.77 µM)
MDRPA [2]; Pseudomonas aeruginosa, read-out: MIC (single use), strain P12, EA=P. clypearia water extract
  MIC: 1 µg/mL (≈ 2.77 µM)
MDRPA [2]; Pseudomonas aeruginosa, read-out: MIC (single use), strain P13, EA=P. clypearia 10% ethanol extract
  MIC: 2 µg/mL (≈ 5.53 µM)
MDRPA [2]; Pseudomonas aeruginosa, read-out: MIC (single use), strain P13, EA=P. clypearia water extract
  MIC: 2 µg/mL (≈ 5.53 µM)
MDRPA [2]; Pseudomonas aeruginosa, read-out: MIC (single use), strain P14, EA=P. clypearia 10% ethanol extract
  MIC: 32 µg/mL (≈ 88.6 µM)
MDRPA [2]; Pseudomonas aeruginosa, read-out: MIC (single use), strain P14, EA=P. clypearia water extract
  MIC: 32 µg/mL (≈ 88.6 µM)
MDRPA [2]; Pseudomonas aeruginosa, read-out: MIC (single use), strain P15, EA=P. clypearia 10% ethanol extract
  MIC: 2 µg/mL (≈ 5.53 µM)
MDRPA [2]; Pseudomonas aeruginosa, read-out: MIC (single use), strain P15, EA=P. clypearia water extract
  MIC: 2 µg/mL (≈ 5.53 µM)
MDRPA [2]; Pseudomonas aeruginosa, read-out: MIC (single use), strain P16, EA=P. clypearia 10% ethanol extract
  MIC: 32 µg/mL (≈ 88.6 µM)
MDRPA [2]; Pseudomonas aeruginosa, read-out: MIC (single use), strain P16, EA=P. clypearia water extract
  MIC: 32 µg/mL (≈ 88.6 µM)
MDRPA [2]; Pseudomonas aeruginosa, read-out: MIC (single use), strain P17, EA=P. clypearia 10% ethanol extract
  MIC: 4 µg/mL (≈ 11.1 µM)
MDRPA [2]; Pseudomonas aeruginosa, read-out: MIC (single use), strain P17, EA=P. clypearia water extract
  MIC: 4 µg/mL (≈ 11.1 µM)
MDRPA [2]; Pseudomonas aeruginosa, read-out: MIC (single use), strain P18, EA=P. clypearia 10% ethanol extract
  MIC: 4 µg/mL (≈ 11.1 µM)
MDRPA [2]; Pseudomonas aeruginosa, read-out: MIC (single use), strain P18, EA=P. clypearia water extract
  MIC: 4 µg/mL (≈ 11.1 µM)
MDRPA [2]; Pseudomonas aeruginosa, read-out: MIC (single use), strain P19, EA=P. clypearia 10% ethanol extract
  MIC: 16 µg/mL (≈ 44.3 µM)
MDRPA [2]; Pseudomonas aeruginosa, read-out: MIC (single use), strain P19, EA=P. clypearia water extract
  MIC: 16 µg/mL (≈ 44.3 µM)
MDRPA [2]; Pseudomonas aeruginosa, read-out: MIC (single use), strain P20, EA=P. clypearia 10% ethanol extract
  MIC: 4 µg/mL (≈ 11.1 µM)
MDRPA [2]; Pseudomonas aeruginosa, read-out: MIC (single use), strain P20, EA=P. clypearia water extract
  MIC: 4 µg/mL (≈ 11.1 µM)
MDRPA [2]; [11]
  MIC50: 4 µg/mL (≈ 11.1 µM)
  MIC90: 32 µg/mL (≈ 88.6 µM)
MDRPA [2]; [12]
  MIC50: 4 µg/mL (≈ 11.1 µM)
  MIC90: 32 µg/mL (≈ 88.6 µM)
MDRPA [2]; [13]
  MIC50: 4 µg/mL (≈ 11.1 µM)
  MIC90: 32 µg/mL (≈ 88.6 µM)
